Here are results for 15 compounds from patent publication US8765809B2, “Ester derivative and use thereof” (Ajinomoto Co., Inc., priority 2006, dated 2014).

The structures appear in SMILES notation.

The assay relates to auricle of hairless mouse. The experiment in a line: Measurement of external blood circulation enhancing action: vasodilatory effect (red spots) after application to the ear. Details: key to Vasodilatory effect for hairless mouse (red spots) / Vasodilatory effect on hairless mouse (red spots): O: clear red spots is confirmed; Δ: weak red spots is confirmed; x: no development of red spots. Particulars: for vasodilatory / blood circulation enhancing effect, summary in words: summary of Tables 2 to 4; for Vasodilatory effect on hairless mouse (red spots) / red spots observed (note, words) / red spots were observed at, time after application / red spots at 1 hr after application / red spots almost disappeared at / weak red spots were observed at, time after application: 5 wt % (ethanol); for red spots at 1 hr after application: 1 hr later. The class given is in vivo, hairless mouse (HR-1, female). The text has this: The compound of each Example, capsinoid derivative and capsaicin were compared for vasodilatory effect using auricle of hairless mouse. A sample was applied to the right ear of hairless mouse (HR-1, female), and a control was applied to the left ear. […]

The mark [1] stands for this setting: 5 wt % (liquid paraffin) as printed, second column of Table 2.
[2] abbreviates: 5 wt % (liquid paraffin), first column of Table 2.
Setting [3] is: application of 5 wt % in liquid paraffin.

For the compound `COc1cc(COC(=O)CCCCCC(C)C)ccc1O` [nordihydrocapsiate, 4-hydroxy-3-methoxybenzyl 7-methyl-octanoate, reference compound], the “Vasodilatory effect for hairless mouse (red spots)” value under setting [1] was “Δ” and the “Vasodilatory effect for hairless mouse (red spots)” value under setting [2] is reported as “∘”. In addition, the “weak red spots were observed even after lapse of” value (“weak red spots were observed even” for short) under setting [3] was “lapse of 90 min”.

With `CC[C@H](C)CCCCCOC(=O)Cc1ccc(O)c(OC)c1` [compound K-2, (S)-(+)-6-methyloctyl homovanillate], the “vasodilatory / blood circulation enhancing effect, summary in words” value is “potent vasodilatory effect”. In addition, the “Vasodilatory effect for hairless mouse (red spots)” value (0.005 wt % (ethanol)) is reported as “Δ”. Further, the “Vasodilatory effect for hairless mouse (red spots)” value (0.05 wt % (ethanol)) is “∘”. In addition, the “Vasodilatory effect for hairless mouse (red spots)” value (0.5 wt % (ethanol)) is given as “∘”. The “Vasodilatory effect for hairless mouse (red spots)” value under setting [1] is given as “∘”. Besides, the “Vasodilatory effect for hairless mouse (red spots)” value under setting [2] is “∘”. Besides, under setting [3], the “red spots were observed even after lapse of” value is on record as “lapse of 90 min”.

Regarding `COc1cc(CO)ccc1O` [vanillyl alcohol, reference compound], the “Vasodilatory effect on hairless mouse (red spots)” value is listed as “x”. In addition, the “Vasodilatory effect for hairless mouse (red spots)” value under setting [2] is given as “x”. The “blood circulation enhancing effect (note, words)” value under setting [3] is “Application of 5 wt %: no blood”.

Take `COc1cc(/C=C/C(=O)OCCCCCCC(C)C)ccc1O` [compound Q-2, 7-methyloctyl ferulate]: the “Vasodilatory effect on hairless mouse (red spots)” value is “x”. The “Vasodilatory effect for hairless mouse (red spots)” value under setting [2] is given as “x”. Besides, the “blood circulation enhancing effect (note, words)” value under setting [3] is recorded as “Application of 5 wt %: no blood”.

Turning to `COc1cc(CC(=O)OCCCCCCCC(C)C)ccc1O` [compound K, 8-methylnonyl homovanillate], the “vasodilatory / blood circulation enhancing effect, summary in words” value is “potent vasodilatory effect”. Moreover, the “Vasodilatory effect for hairless mouse (red spots)” value under setting [2] is recorded as “∘”. Further, the “weak red spots were observed even” value under setting [3] is given as “lapse of 2 hr”.

`COc1cc(COC(=O)CCCC/C=C/C(C)C)ccc1O` [capsiate, 4-hydroxy-3-methoxybenzyl (E)-8-methyl-6-nonenoate, reference compound]: the “Vasodilatory effect on hairless mouse (red spots)” value is on record as “∘” and the “red spots observed (note, words)” value is given as “Clear red spots were observed”. For the same compound, the “Vasodilatory effect for hairless mouse (red spots)” value under setting [1] is reported as “Δ”. The “Vasodilatory effect for hairless mouse (red spots)” value under setting [2] was “∘”. Further, the “weak red spots were observed even” value under setting [3] is reported as “lapse of 90 min”.

In the case of `COc1cc(CCC(=O)OCCCCCC(C)C)ccc1O` [compound L-2, 6-methylheptyl 3-(4-hydroxy-3-methoxyphenyl)propionate], the “Vasodilatory effect on hairless mouse (red spots)” value was “∘”; the “red spots were observed at, time after application” value was “Red spots were observed at 5 min”; the “red spots at 1 hr after application” value was “thin red spots remained. L-4 showed”; the “vasodilatory / blood circulation enhancing effect, summary in words” value is recorded as “potent vasodilatory effect”. Further, the “Vasodilatory effect for hairless mouse (red spots)” value under setting [1] was “Δ”. Under setting [2], the “Vasodilatory effect for hairless mouse (red spots)” value is given as “∘”. Besides, the “red spots disappeared in” value under setting [3] is listed as “spots disappeared in 1 hr”.

For the compound `COc1cc(/C=C/C(=O)OCCCCCC(C)C)ccc1O` [compound Q-3, 6-methylheptyl ferulate], the “Vasodilatory effect on hairless mouse (red spots)” value was “x”. The “Vasodilatory effect for hairless mouse (red spots)” value under setting [2] is given as “x”. The “blood circulation enhancing effect (note, words)” value under setting [3] is listed as “Application of 5 wt %: no blood”.

Regarding `CCCCCC(=O)OCCCc1ccc(O)c(OC)c1` [compound J-5, 3-(3-methoxy-4-hydroxyphenyl)propyl n-hexanoate], the “Vasodilatory effect on hairless mouse (red spots)” value is “Δ”; the “red spots almost disappeared at” value is recorded as “almost disappeared at 30 min later”; the “weak red spots were observed at, time after application” value is listed as “Weak red spots were observed at 10 min”; the “vasodilatory / blood circulation enhancing effect, summary in words” value is on record as “weak blood circulation enhancing effect”. Besides, under setting [1], the “Vasodilatory effect for hairless mouse (red spots)” value is given as “x”. Also, under setting [2], the “Vasodilatory effect for hairless mouse (red spots)” value is given as “Δ”. Further, the “red spots disappeared in” value under setting [3] was “spots disappeared in 1 hr”.

On to `COc1cc(CC(=O)OCCCCCCC(C)C)ccc1O` [compound K-1, 7-methyloctyl homovanillate], for which the “vasodilatory / blood circulation enhancing effect, summary in words” value is given as “potent vasodilatory effect”. Further, the “Vasodilatory effect for hairless mouse (red spots)” value (0.005 wt % (ethanol)) is “Δ”. Besides, where the note is “0.05 wt % (ethanol)”, the “Vasodilatory effect for hairless mouse (red spots)” value is reported as “∘”. Moreover, under “0.5 wt % (ethanol)”, the “Vasodilatory effect for hairless mouse (red spots)” value is on record as “∘”. In addition, the “Vasodilatory effect for hairless mouse (red spots)” value under setting [1] is reported as “∘”. Moreover, the “Vasodilatory effect for hairless mouse (red spots)” value under setting [2] is given as “∘”. Further, the “red spots were observed even after lapse of” value under setting [3] is given as “lapse of 90 min”.

With `COc1cc(CC(=O)OCCCCCC(C)C)ccc1O` [compound K-3, 6-methylheptyl homovanillate], the “vasodilatory / blood circulation enhancing effect, summary in words” value was “potent vasodilatory effect”. In addition, under “0.005 wt % (ethanol)”, the “Vasodilatory effect for hairless mouse (red spots)” value is “Δ”. In addition, the “Vasodilatory effect for hairless mouse (red spots)” value (0.05 wt % (ethanol)) was “∘”. The “Vasodilatory effect for hairless mouse (red spots)” value (0.5 wt % (ethanol)) was “∘”. Also, the “Vasodilatory effect for hairless mouse (red spots)” value under setting [1] was “∘”. Moreover, the “Vasodilatory effect for hairless mouse (red spots)” value under setting [2] is on record as “∘”. Moreover, the “red spots were observed even after lapse of” value under setting [3] is on record as “lapse of 90 min”.

Take `COc1cc(CNC(=O)CCCC/C=C/C(C)C)ccc1O` [capsaicin, reference compound]: the “Vasodilatory effect on hairless mouse (red spots)” value was “∘” and the “red spots observed (note, words)” value is “Strong red spots were observed”. For the same compound, under “0.005 wt % (ethanol)”, the “Vasodilatory effect for hairless mouse (red spots)” value is on record as “Δ”. Moreover, the “Vasodilatory effect for hairless mouse (red spots)” value (0.05 wt % (ethanol)) is recorded as “∘”. For the same compound, the “Vasodilatory effect for hairless mouse (red spots)” value (0.5 wt % (ethanol)) is given as “∘”. Under setting [1], the “Vasodilatory effect for hairless mouse (red spots)” value was “∘”. Besides, under setting [2], the “Vasodilatory effect for hairless mouse (red spots)” value is recorded as “∘”. Under “application of 1 wt % in liquid paraffin”, the “red spots were observed even after lapse of” value is on record as “lapse of 2 hr”.

Turning to `COc1cc(CCCOC(=O)CCCCCC(C)C)ccc1O` [compound J-1, 3-(3-methoxy-4-hydroxyphenyl)propyl 7-methyloctanoate], the “Vasodilatory effect on hairless mouse (red spots)” value is given as “∘”; the “red spots almost disappeared at” value is on record as “almost disappeared at 30 min later”; the “weak red spots were observed at, time after application” value is listed as “Weak red spots were observed at 10 min”; the “vasodilatory / blood circulation enhancing effect, summary in words” value is on record as “weak blood circulation enhancing effect”. Moreover, under setting [1], the “Vasodilatory effect for hairless mouse (red spots)” value is given as “x”. Moreover, under setting [2], the “Vasodilatory effect for hairless mouse (red spots)” value is “Δ”. For the same compound, the “red spots disappeared in” value under setting [3] is on record as “spots disappeared in 1 hr”.

Regarding `COc1cc(CCC(=O)OCCCCC(C)C)ccc1O` [compound L-3, 5-methylhexyl 3-(4-hydroxy-3-methoxyphenyl)propionate], the “Vasodilatory effect on hairless mouse (red spots)” value was “∘”; the “red spots were observed at, time after application” value is listed as “Red spots were observed at 5 min”; the “red spots at 1 hr after application” value is “thin red spots remained. L-4 showed”; the “vasodilatory / blood circulation enhancing effect, summary in words” value is on record as “potent vasodilatory effect”. In addition, under setting [1], the “Vasodilatory effect for hairless mouse (red spots)” value is given as “Δ”. Moreover, the “Vasodilatory effect for hairless mouse (red spots)” value under setting [2] is on record as “∘”. Besides, under setting [3], the “red spots disappeared in” value is recorded as “spots disappeared in 1 hr”.

Turning to `COc1cc(CCC(=O)OCCCCCCCC(C)C)ccc1O` [compound L, 8-methylnonyl 3-(4-hydroxy-3-methoxyphenyl)propionate], the “vasodilatory / blood circulation enhancing effect, summary in words” value was “potent vasodilatory effect”. The “Vasodilatory effect for hairless mouse (red spots)” value under setting [2] is “∘”. Besides, under setting [3], the “red spots were observed even after lapse of” value is reported as “lapse of 90 min”.
